Experiments:
Src = assay: Western blotting of Src and PLCγ phosphorylation in NIH3T3 cells; assay type: cell-based
Experimental: NIH3T3 and Raw 264.7 cells were cultured in DMEM supplemented with 2 mM L-glutamine, 50 U/mL penicillin, […] streptomycin, and 10% CS or heat-inactivated FBS (30 min at 55 °C), respectively. NIH3T3 cells were transfected with different plasmids using the Lipofectamine LTX/plus reagent according to the manufacturer’s instructions. For immunofluorescence experiments, NIH3T3 cells were seeded onto glass coverslips in 24-well plates at a concentration suitable for 70% confluence without transfection or 50% confluence in the case of Lipofectamine-based cell transfection. In the latter, approximately 24 h after seeding, NIH3T3 cells were transiently transfected with different plasmids with the Lipofectamine LTX/plus reagent following the manufacturer’s instructions. Before treatments, NIH3T3 cells were serum-starved in DMEM with 2 mM glutamine, 50 U/mL penicillin and streptomycin for 16–20 h. The cells were then treated with different stimuli and/or inhibitors, as indicated in the text and/or Figure legends. Addition of exogenous GroPIns4P was at 50 μM (unless otherwise indicated), a concentration eliciting an intracellular concentration of about 1.5 μM, as calculated from the Nernst equation (with T = 300 K, z = − 3, and Veq = − 30 mV, an average value for cultured, non-excitable cells).
NIH3T3 cells were washed with ice-cold PBS and lysed on ice in buffer containing 20 mM Tris-HCl, pH 8.0, 150 mM NaCl, 1% Triton-X100, 5 mM Na3VO4, 30 mM β-glycerophosphate and 10 mM NaF supplemented with the protease inhibitor cocktail and processed for SDS-PAGE. Westen blotting was performed with the relevant antibodies. For immunoprecipitation experiments, 2 μg of an anti-Shp1 antibody or 5 μg of an anti-Src antibody were added to 1 mg of NIH3T3 cell lysates at 4 °C and incubated overnight. The samples were then incubated with A or G protein agarose beads for 1 h at 4 °C. Western blotting was performed from the washed and denatured complexes.

NIH3T3 cells = assay: Wound-healing assay; assay type: cell-based
Experimental: To perform the wound-healing assay, NIH3T3 cells were seeded in 6-well tissue culture plates to a final density of 3 × 10^5 cells/well and maintained at 37 °C and 5% CO2 for 24 h until confluence before being starved overnight in DMEM containing 1% bovine serum. The cell monolayer was wounded by scratching with a 10 μL standard sterile pipette tip. The scratched monolayer was rinsed twice with DMEM containing 1% bovine serum to remove cell debris and incubated with or without 50 μM GroPIns4P. […] In detail, the input image was processed by applying a Sobel edge detector [26], obtaining a gradient image. A threshold process was then performed on the gradient image to obtain the foreground corresponding to the wound area. Particularly, all of the pixels of the gradient image with values less than the threshold θ were assumed to be pixels of the foreground (experimentally, θ is set to 4). Finally, procedures based on morphological operations were used to remove small regions and to fill holes of the wound area to complete detection and analysis.

[1] = biological target: T1, Shp1 S118A/R138E/S140A mutant (Homo sapiens, UniProt P29350, R136E/S116A/S138A); assay: Trp fluorescence emission spectroscopy of Shp1 S118A/R138E/S140A mutant; assay type: binding; details: S118A/R138E/S140A vs wild type
T1 construct: a tailless-form of Shp1 (residues 1–529) has previously been used [25] and it is used also in this study; 6xHis (N); made in house; host or cells: E. coli BL21(DE3)
T1 sequence (P29350 1-529 isoform P29350-3 S118A/R138E/S140A): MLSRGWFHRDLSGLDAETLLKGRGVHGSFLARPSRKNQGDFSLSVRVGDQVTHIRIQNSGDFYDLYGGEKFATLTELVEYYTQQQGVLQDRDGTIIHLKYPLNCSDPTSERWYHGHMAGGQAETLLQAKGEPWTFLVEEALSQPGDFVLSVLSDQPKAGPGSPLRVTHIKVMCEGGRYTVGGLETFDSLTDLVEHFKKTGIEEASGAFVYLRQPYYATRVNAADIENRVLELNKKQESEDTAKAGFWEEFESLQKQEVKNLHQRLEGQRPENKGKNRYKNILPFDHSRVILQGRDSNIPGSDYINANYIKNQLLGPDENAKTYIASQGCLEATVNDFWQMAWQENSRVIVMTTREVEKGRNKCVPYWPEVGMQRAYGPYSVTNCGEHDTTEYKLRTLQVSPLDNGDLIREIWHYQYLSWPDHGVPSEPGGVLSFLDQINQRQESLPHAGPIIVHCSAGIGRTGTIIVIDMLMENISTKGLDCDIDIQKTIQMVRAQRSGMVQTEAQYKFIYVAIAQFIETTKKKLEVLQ
Experimental: The absorption spectra of Shp1 were recorded using a Varian Cary 1 spectrophotometer. Steady-state fluorescence emission measurements were performed with a K2 fluorometer (ISS, Champaign, IL, USA) equipped with a two-cell temperature-controlled sample holder. To selectively excite Trp residues, the excitation wavelength was set at 295 nm with a slit width of 1 nm. To avoid the inner-filter effect, all steady-state fluorescence measurements were performed on Shp1 with optical densities at 295 nm less than 0.1 OD. All measurements were made at 25 °C with the temperature of the samples determined in the cuvette with an accuracy of ±0.2 °C. For each experiment, the Shp1 concentration was fixed at 1.2 μM, while GroPIns4P was varied from 0.0 to 5.0 μM. Thus, a 500 μL solution containing 1.2 μM Shp1 dissolved in PBS pH 7.4 was titrated by successive additions of GroPIns4P (dissolved in PBS buffer, pH 7.4). After each addition, the samples were incubated for 2 min and fluorescence emission spectra were recorded between 310 and 410 nm in triplicate. To exclude the influence of sample dilution, fluorescence titration experiments were performed by adding the same amount of PBS buffer in the total volume (500 μL).

[2] = NIH3T3 overexpressing Shp1-C455S, 50 μM

- decrease of binding efficiency of the mutated protein [1]: up to 50%
Compound: O=P(O)(O)OC1C(O)C(O)C(OP(=O)(O)OCC(O)CO)C(O)C1O (stereo not drawn) [GroPIns4P, glycerophosphoinositol 4-phosphate]
- phosphorylation of PLCγ on Tyr783 (Src; NIH3T3, 50 μM): induced an increase in phosphorylation
- Src activating Tyr418 phosphorylation (Src; NIH3T3, 50 μM for 2 to 5 min): increased
- Src inhibitory Tyr530 phosphorylation (Src; NIH3T3, 50 μM for 2 to 5 min): markedly decreased
- Src Tyr418 or PLCγ tyrosine phosphorylation (Src; [2]): no increase
- Src dephosphorylation (pTyr530) (Src; [2]): failed to induce Src dephosphorylation
- increase of wound closure compared to the control (NIH3T3 cells; 50 μM, 6 h after scratching): 65%
- wound closure (NIH3T3 cells; 50 μM, at 30 h): almost complete
- rescue of EGF effect in cells treated with cPLA2α inhibitor (NIH3T3 cells; EGF 10 ng/ml, cPLA2α inhibitor, 50 μM GroPIns4P): could be rescued
